Results from article PMC9887116, “SDI-118, a novel procognitive SV2A modulator: First-in-human randomized controlled trial including PET/fMRI assessment of target engagement” (Frontiers in Pharmacology, 2023).

Legend:
[1] = molecular target: human recombinant SV2A (hSV2A) (Homo sapiens, UniProt Q7L0J3); assay: in vitro radioligand binding study using human recombinant SV2A; settings: read-out: half maximal inhibitory concentration (IC50)
Excerpt: (§1) ([Löscher et al., 2016]). […] ([Lynch et al., 2004]; [Matagne et al., 2008]).

[2] = system: SV2B; settings: relative to SV2A
Excerpt: as §1

[3] = system: SV2C; settings: relative to SV2A
Excerpt: as §1

[4] = anti-convulsant effects (preclinical); type: in vivo; settings: despite good brain penetration and target occupancy
Excerpt: as §1

[5] = system: animal models of cognitive deficit; assay: animal models of cognitive deficit; type: in vivo; settings: rodents
Excerpt: as §1

[6] = molecular target: hERG (Homo sapiens, UniProt Q12809); assay: preclinical in vitro hERG inhibition; type: biochemical; settings: preclinical in vitro studies
hERG, sequence (Q12809 whole entry): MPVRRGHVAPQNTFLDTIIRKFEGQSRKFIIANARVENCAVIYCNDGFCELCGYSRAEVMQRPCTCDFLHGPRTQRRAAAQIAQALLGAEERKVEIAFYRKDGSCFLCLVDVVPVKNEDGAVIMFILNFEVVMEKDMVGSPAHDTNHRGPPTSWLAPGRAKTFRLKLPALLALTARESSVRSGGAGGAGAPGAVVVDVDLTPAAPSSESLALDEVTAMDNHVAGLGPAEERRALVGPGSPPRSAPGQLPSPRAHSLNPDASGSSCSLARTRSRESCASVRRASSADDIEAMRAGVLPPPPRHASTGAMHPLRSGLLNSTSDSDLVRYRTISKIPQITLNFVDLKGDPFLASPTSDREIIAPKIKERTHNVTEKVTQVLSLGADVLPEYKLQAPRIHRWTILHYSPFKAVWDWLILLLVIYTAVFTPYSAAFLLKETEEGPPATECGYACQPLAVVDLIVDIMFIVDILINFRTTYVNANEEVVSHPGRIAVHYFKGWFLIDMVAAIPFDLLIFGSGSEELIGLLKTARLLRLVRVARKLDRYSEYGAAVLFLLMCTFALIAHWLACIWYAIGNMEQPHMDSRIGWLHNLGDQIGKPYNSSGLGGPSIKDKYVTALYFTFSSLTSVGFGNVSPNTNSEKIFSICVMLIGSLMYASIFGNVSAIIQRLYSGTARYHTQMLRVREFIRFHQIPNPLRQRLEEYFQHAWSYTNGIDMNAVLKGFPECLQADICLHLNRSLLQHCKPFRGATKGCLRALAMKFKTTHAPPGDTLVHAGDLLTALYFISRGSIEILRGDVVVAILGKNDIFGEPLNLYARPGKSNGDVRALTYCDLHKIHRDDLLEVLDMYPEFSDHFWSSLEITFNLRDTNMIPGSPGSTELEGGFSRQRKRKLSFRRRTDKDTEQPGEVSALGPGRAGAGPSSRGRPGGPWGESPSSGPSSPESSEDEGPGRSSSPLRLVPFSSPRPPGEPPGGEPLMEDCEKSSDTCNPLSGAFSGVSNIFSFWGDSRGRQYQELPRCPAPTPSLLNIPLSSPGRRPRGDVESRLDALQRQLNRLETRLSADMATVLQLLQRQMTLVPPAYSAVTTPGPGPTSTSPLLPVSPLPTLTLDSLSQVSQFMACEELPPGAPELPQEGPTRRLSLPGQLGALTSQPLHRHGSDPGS

[7] = cardiovascular safety pharmacology study in dogs; type: in vivo
[8] = 12-lead ECG QT-interval assessment in first-in-human study; type: in vivo, human (healthy male subjects)
Description: (§4) Safety and tolerability were assessed by questioning for adverse events (AEs), vital signs measurements (supine and orthostatic), 12-lead ECGs (always acquired in triplicate except during screening and post-study visit), standard lab safety tests on blood and urine samples, and physical and neurological examinations at regular time-points throughout the study.

[9] = plasma pharmacokinetics, Part A single ascending dose; type: in vivo, human (healthy male subjects)
Description: (§2) The study consisted of three parts. […] No stratification was performed.
(§3) Blood samples for PK analysis were taken at regular time-points up to approximately 96 h post-dose in Part A and C. During the study, a protocol amendment was approved to extend the PK sampling scheme to include samples up to approximately 144 h post-dose, starting from the fourth dosing period. The rationale for this amendment was a longer than anticipated terminal elimination half-life of SDI-118 as concluded from preliminary PK data of the first three dosing periods. Plasma concentrations of SDI-118 were assayed using a GLP validated UPLC/MS-MS method. This method is linear for a range of concentrations from 0.200 to 500 ng/ml, with a lower limit of quantification (LLOQ) of 0.200 ng/ml. The following PK parameters were estimated: maximum plasma concentration Cmax, time of maximum plasma concentration Tmax, area under the plasma concentration versus time curve AUC, AUC0-last (up to the last quantifiable concentration Clast), AUCinf (extrapolated to infinity), and apparent terminal elimination half-life t½. Dose proportionality of SDI-118 Cmax, AUC0-last, and AUCinf from Part A was calculated based on a mixed-effect power model. Food effect on SDI-118 Cmax, AUC0-last, and AUCinf from Part C was calculated using a 90% confidence interval (CI) on geometric mean ratios (fed/fasted) based on a mixed-effect analysis of variance (ANOVA) with median difference in Tmax with 90% CI. Major interaction was excluded if the 90% CI on AUC and Cmax ratios (fed/fasted) were within the 50%–200% boundaries. The food effect assessment in Part C was performed on a secondary population, i.e. the PK completers set, which excluded one subject who discontinued the study after one dosing period (cfr. infra).

[10] = food effect on pharmacokinetics, Part C; type: in vivo, human (healthy male subjects); settings: 10 mg
Description: as §3

[11] = system: SV2A; assay: minimum anticipated biological effect level in experimental rodent models; type: in vivo
Description: as §2

[12] = in vivo
Description: (§5) The study consisted of three parts. Part A was a double-blind, placebo-controlled (in a 6:2 SDI-118:placebo ratio), single ascending oral dose study performed in 16 subjects equally divided into two cohorts. […] Dose levels of .3, 1, 3, 10, 30, 60, 90 and 120 mg of SDI-118 were set to be administered in an alternating panel design with a minimum washout period of 7 days between subsequent periods. In each period two different sentinel subjects were dosed (in a 1:1 SDI-118:placebo ratio) and followed-up for safety for at least 48 h before the rest of the cohort received the same dose level of the study drug.
as §4

[13] = first-in-human single oral dose safety and tolerability (adverse events)
Description: as §5, §4

[14] = all subjects (n = 32), all single doses pooled
[15] = all subjects (n = 32), only at 80 mg

human recombinant SV2A (hSV2A), sequence (Q7L0J3 whole entry): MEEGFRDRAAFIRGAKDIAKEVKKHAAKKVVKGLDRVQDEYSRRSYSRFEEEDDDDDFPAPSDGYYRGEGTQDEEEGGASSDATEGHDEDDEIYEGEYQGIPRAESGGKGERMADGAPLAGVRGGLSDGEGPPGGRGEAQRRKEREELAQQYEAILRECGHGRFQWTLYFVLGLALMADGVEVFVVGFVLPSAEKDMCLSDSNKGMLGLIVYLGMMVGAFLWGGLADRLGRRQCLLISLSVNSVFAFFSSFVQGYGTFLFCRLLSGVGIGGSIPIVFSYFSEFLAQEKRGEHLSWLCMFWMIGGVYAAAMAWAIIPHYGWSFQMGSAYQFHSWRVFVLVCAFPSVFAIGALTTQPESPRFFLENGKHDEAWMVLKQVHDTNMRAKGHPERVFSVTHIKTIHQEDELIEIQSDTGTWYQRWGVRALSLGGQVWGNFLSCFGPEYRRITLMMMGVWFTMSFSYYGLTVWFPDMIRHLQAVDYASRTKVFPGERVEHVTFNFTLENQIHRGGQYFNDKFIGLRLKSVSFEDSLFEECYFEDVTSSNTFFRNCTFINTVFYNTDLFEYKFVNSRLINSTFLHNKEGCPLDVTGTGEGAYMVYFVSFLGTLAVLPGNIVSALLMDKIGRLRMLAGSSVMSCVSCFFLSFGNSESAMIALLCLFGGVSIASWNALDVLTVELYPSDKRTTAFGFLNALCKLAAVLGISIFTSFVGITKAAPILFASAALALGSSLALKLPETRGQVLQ

O=C1C[C@H](c2cc(F)c(F)c(F)c2)CN1Cn1ncnc1Cl [SDI-118]
IC50 [1]: 13 nM | selectivity over SV2B [2]: over 1000 fold | selectivity over SV2C [3]: over 100 fold | anti-convulsant effects [4]: without anti-convulsant effects | cognitive effects in animal models of cognitive deficit [5]: showed cognitive enhancing effects | potential to inhibit hERG [6]: low potential to inhibit hERG | findings in cardiovascular safety pharmacology study [7]: absence of any adverse findings | largest observed mean increase from baseline QTcF ([8]; 12 h post-dose at 60 mg): +6.1 ms | single QT-interval value, any subject ([8]; no subject above this value): ≤ 500 ms | single corrected QT-interval Fridericia (QTcF) value, any subject ([8]; no subject above this value): ≤ 450 ms | QT-interval prolongation ([8]; single oral doses 0.3-80 mg): no QT-interval prolongations were observed | geometric mean AUCinf ([9]; 0.3 mg single oral dose): 120 ng·h/mL | geometric mean Cmax ([9]; 0.3 mg single oral dose): 3.42 ng/mL | geometric mean AUCinf ([9]; 80 mg single oral dose): 25,500 ng*h/mL | geometric mean Cmax ([9]; 80 mg single oral dose): 854 ng/mL | deviation from dose proportionality for Cmax ([9]; 0.3-80 mg, mixed-effect power model): approximately 5% | dose proportionality based on AUC0-last and AUCinf ([9]; entire dose range 0.3-80 mg): dose-proportional | median Tmax ([9]; oral capsule, fasting condition): 1.5 h | median Tmax ([10]; fasting state): 1.5 h | median Tmax ([10]; fed state (standardized high fat meal)): 4.0 h | effect of food on extent of exposure (Cmax, AUC0-last, AUCinf) ([10]; fed vs fasted (n = 8)): No clinically relevant effect of food | SV2A occupancy at which MABEL appeared to start [11]: approximately 10% | onset time of dizziness, hypersomnia, somnolence after dose administration [12]: up to 4 h | dizziness, drug related TEAE, number of events [13, 14]: 12 events | dizziness, drug related TEAE, number of subjects [13, 14]: nine | hypersomnia, drug related TEAE, number of events [13, 14]: 6 events | hypersomnia, drug related TEAE, number of subjects [13, 14]: five | somnolence, drug related TEAE, number of events [13, 15]: 2 events | somnolence, drug related TEAE, number of subjects [13, 15]: two | All drug related TEAEs: N (%) (number of subjects) ([13]; single oral dose 1 mg (N=8)): 1 (12.5) N (%) | All drug related TEAEs: No. (number of observations) ([13]; single oral dose 1 mg (N=8)): 1 | Headache, drug related TEAE: N (%) (number of subjects) ([13]; single oral dose 1 mg (N=8)): 1 (12.5) N (%) | Headache, drug related TEAE: No. (number of observations) ([13]; single oral dose 1 mg (N=8)): 1 | Nervous System Disorders, drug related TEAEs: N (%) (number of subjects) ([13]; single oral dose 1 mg (N=8)): 1 (12.5) N (%) | Nervous System Disorders, drug related TEAEs: No. (number of observations) ([13]; single oral dose 1 mg (N=8)): 1 | All drug related TEAEs: N (%) (number of subjects) ([13]; single oral dose 3 mg (N=6)): 1 (16.7) N (%) | All drug related TEAEs: No. (number of observations) ([13]; single oral dose 3 mg (N=6)): 1 | Cardiac Disorders, drug related TEAEs: N (%) (number of subjects) ([13]; single oral dose 3 mg (N=6)): 1 (16.7) N (%) | Cardiac Disorders, drug related TEAEs: No. (number of observations) ([13]; single oral dose 3 mg (N=6)): 1 | Postural Dizziness, drug related TEAE: N (%) (number of subjects) ([13]; single oral dose 3 mg (N=6)): 1 (16.7) N (%) | Postural Dizziness, drug related TEAE: No. (number of observations) ([13]; single oral dose 3 mg (N=6)): 1 | All drug related TEAEs: N (%) (number of subjects) ([13]; single oral dose 10 mg (N=16)): 4 (66.7) N (%) | All drug related TEAEs: No. (number of observations) ([13]; single oral dose 10 mg (N=16)): 5 | Blurred vision, drug related TEAE: N (%) (number of subjects) ([13]; single oral dose 10 mg (N=16)): 1 (16.7) N (%) | Blurred vision, drug related TEAE: No. (number of observations) ([13]; single oral dose 10 mg (N=16)): 1 | Dizziness, drug related TEAE: N (%) (number of subjects) ([13]; single oral dose 10 mg (N=16)): 1 (16.7) N (%) | Dizziness, drug related TEAE: No. (number of observations) ([13]; single oral dose 10 mg (N=16)): 1 | Eye Disorders, drug related TEAEs: N (%) (number of subjects) ([13]; single oral dose 10 mg (N=16)): 1 (16.7) N (%) | Eye Disorders, drug related TEAEs: No. (number of observations) ([13]; single oral dose 10 mg (N=16)): 1 | Fatigue, drug related TEAE: N (%) (number of subjects) ([13]; single oral dose 10 mg (N=16)): 1 (16.7) N (%) | Fatigue, drug related TEAE: No. (number of observations) ([13]; single oral dose 10 mg (N=16)): 1
